The values below come from patent publication US10883137B2, “Method to detect activity of a polymerase” (MAX-PLANCK-GESELLSCHAFT ZUR FÖRDERUNG DER WISSENSCHAFTEN …, priority 2015, dated 2021).

Type in all cases: biochemical
For test [1], the target named is human POLRMT (mitochondrial DNA-directed RNA polymerase) (Homo sapiens, UniProt O00411). As to the kind of experiment: Inhibitor activity determination, mitochondrial RNA-polymerase, 384-well dose-response format. To be noted: for IC50: 384-well, 8-point dilution series, 200 μM to 5 μM, 500 μM dNTPs; for Hill slope: four-parameter non-linear regression fit; for res. activity at highest conc.: highest assay conc. 200 μM; for res. activity at highest conc. / res. activity at lowest conc.: relative to positive control; for res. activity at lowest conc.: lower limit of 5 μM. The text has this:
The assay protocol largely corresponds to the setup described in example 1 (Determination of activity of mitochondrial RNA-polymerase using the same initiator and probes than in example 1). For determination of the activity, however, the reaction mix always contains the nucleotide triphosphate mix, to enforce potential competition between inhibitor compound and substrate. Negative control samples are set up such that no template DNA (pUC-LSP) is included in the reaction mixture.
Pre-diluted protein samples are mixed with the dNTP-mixture in a reaction buffer, containing 10 mM TrisHCl pH 7.5, 10 mM MgCl2, 40 mM NaCl, 2 mM GSH, 0.01% (w/v) Tween-20 and 0.1 mg/mL BSA, to yield final assay concentrations of 7.5 nM (POLRMT), 90 nM (TFAM), 20 nM (TFB2M) and 500 μM (dNTPs). 5 μL of this mix are dispensed, depending on the chosen microtiter plate format, using multi-channel pipettes or a Thermo Multidrop® dispenser into the wells of a microtiter plate and incubated at room-temperature (RT) for 10 minutes.
Equal amounts of DMSO without any compound are added to positive control samples. An incubation step at RT for 10 minutes is applied to allow binding of compounds.
The enzymatic reaction is started by the addition of 5 μL of a mix of template DNA (pUC-LSP) in reaction buffer to a final concentration of 0.5 nM. The following mixing, incubation and detection steps correspond to the steps described in example 1.

Test [2] deals with T1, human mitochondrial DNA-polymerase (POLG) (Homo sapiens, UniProt P54098).
T1 sequence (P54098 1-1239): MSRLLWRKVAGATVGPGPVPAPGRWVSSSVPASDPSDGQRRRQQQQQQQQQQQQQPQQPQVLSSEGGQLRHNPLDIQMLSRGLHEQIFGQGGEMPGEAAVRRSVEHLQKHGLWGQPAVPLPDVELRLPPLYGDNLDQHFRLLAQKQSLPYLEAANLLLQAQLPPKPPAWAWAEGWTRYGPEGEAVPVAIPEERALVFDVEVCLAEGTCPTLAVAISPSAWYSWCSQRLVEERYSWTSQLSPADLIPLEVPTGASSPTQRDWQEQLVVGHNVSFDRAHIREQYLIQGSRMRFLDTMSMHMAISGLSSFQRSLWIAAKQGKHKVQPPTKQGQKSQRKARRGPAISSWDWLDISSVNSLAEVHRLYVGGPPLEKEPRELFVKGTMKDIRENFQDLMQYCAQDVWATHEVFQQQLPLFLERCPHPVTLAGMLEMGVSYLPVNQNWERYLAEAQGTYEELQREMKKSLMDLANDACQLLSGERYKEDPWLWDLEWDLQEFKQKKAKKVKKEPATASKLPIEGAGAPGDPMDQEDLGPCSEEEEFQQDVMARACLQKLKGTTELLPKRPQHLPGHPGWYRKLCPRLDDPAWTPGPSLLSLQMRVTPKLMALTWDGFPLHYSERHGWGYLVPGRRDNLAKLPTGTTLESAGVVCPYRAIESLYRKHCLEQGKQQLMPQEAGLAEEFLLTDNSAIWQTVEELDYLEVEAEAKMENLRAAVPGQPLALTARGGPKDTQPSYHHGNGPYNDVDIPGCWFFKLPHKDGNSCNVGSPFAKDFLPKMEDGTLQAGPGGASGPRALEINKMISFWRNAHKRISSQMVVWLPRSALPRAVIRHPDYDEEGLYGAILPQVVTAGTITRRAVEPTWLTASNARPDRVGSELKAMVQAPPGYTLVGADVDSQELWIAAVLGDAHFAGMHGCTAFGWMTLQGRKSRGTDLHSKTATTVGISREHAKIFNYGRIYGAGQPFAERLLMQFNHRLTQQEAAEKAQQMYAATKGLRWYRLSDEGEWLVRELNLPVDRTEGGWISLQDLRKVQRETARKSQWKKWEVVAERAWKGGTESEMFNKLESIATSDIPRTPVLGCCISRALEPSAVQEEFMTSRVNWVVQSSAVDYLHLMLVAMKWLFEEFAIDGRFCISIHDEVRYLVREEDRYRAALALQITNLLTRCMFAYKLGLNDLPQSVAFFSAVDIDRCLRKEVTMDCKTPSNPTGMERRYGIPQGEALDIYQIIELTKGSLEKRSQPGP
T1 sequence (Q9UHN1 1-485 partner): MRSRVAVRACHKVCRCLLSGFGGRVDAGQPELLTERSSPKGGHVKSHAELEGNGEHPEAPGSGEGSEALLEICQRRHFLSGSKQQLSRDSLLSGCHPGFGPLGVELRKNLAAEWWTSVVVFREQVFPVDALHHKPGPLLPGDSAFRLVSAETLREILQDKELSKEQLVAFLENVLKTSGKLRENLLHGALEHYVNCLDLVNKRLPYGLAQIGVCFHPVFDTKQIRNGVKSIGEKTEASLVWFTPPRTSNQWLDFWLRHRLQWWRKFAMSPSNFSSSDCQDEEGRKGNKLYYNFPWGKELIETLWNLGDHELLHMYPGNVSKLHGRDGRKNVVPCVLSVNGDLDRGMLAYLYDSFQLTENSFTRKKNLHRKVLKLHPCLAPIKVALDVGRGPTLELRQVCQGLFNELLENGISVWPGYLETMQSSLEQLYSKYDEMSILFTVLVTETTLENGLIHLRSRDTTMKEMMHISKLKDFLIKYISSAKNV
As to the kind of experiment: Inhibitor activity determination using human mitochondrial DNA-polymerase, 384-well dose-response format. The text has this: The assay protocol largely corresponds to the setup described in example 1 (Determination of activity of mitochondrial RNA-polymerase using the same initiator and probes than in example 1). For determination of the activity of the mitochondrial replication, however, the two-subunit complex of the mitochondrial DNA-polymerase (POLG, NM_002693.2, NM_007215.3), the […] TWINKLE (NM_021830.4) and mitochondrial single-strand binding protein (SSBP1, NM_001256510.1) are used. Also, the reaction mix always contains the substrate nucleotide mix, to enforce potential competition between inhibitor compound and substrate.
For DNA-replication the template is generated using a circular, single-stranded DNA formed from pBlueskript SK+. To this circular, ssDNA, a primer with 42-nucleotide poly-T is annealed to form a fork structure. To make dsDNA, the primer is elongated with KOD polymerase, which synthesizes DNA around the entire circle, until again it reaches the primer. At this point DNA-synthesis stops and a double-stranded DNA template of about 3000 bp with an artificial replication fork is formed.
For activity determination, negative control samples are set up such that no template DNA is included in the assay mixture. Assay components are mixed in a buffer containing 25 mM TrisHCl pH 8.0, 5 mM MgCl2, 2 mM GSH, and 0.1 mg/mL BSA, to yield final assay concentrations of 30 nM POLG, 15 nM TWINKLE, 20 nM SSBP1, 250 μM dNTPs, 4 mM ATP as well as the two DNA-probes at 3 nM concentration each.
5 μL of this mix are dispensed, depending on the chosen microtiter plate format, using multi-channel pipettes or a Thermo Multidrop® dispenser into the wells of a microtiter plate and incubated at room-temperature (RT) for 10 minutes.
Chemical compounds under scrutiny in the assay are applied using contact-free acoustic droplet-dispensing (Labcyte Echo®) from 10 mM compound stocks (in 100% DMSO) in an appropriate 8-point dilution series to ensure accurate fitting of the resulting activity data (i.e. upper and lower asymptote reached). Equal amounts of DMSO without any compound are added to positive control samples. An incubation step at RT for 10 minutes is applied to allow binding of compounds.
The enzymatic reaction is started by the addition of 5 μL of a mix template DNA in reaction buffer to a final concentration of 5 nM. Following incubation for 1 h at 37° C., the reaction is stopped by addition of a detection mix, containing 3 nM streptavidin-coupled Eu-cryptate pre-incubated with an excess of an unspecific random oligonucleotide, in 20 mM Tris-HCl pH 8.0, 400 mM NaCl and 50 mM EDTA. HTRF-signals are measured following over-night incubation at room-temperature. […]

The target of test [3] is mitochondrial RNA-polymerase (POLRMT) (Homo sapiens, UniProt O00411). As to the kind of experiment: Activity of mitochondrial RNA-polymerase with and without TEFM (in vitro transcription, FRET detection). To be noted: TEFM 100 nM; product formation quenched after 2 h. How it is done:
FIG. 8: is displaying the result of a comparative study of the effect of adding TEFM to the in vitro transcription reaction, as described in example 6. Two transcription reactions were set up either with or without the addition of TEFM (100 nM) and product formation quenched after 2 h. The specific FRET signal of the reaction without TEFM was used as a reference and normalized to 100%, while for the reaction including TEFM a signal increase of around 18% (±10%) was measured under the chosen conditions.
To enhance the enzymatic turnover and, thus, specific signal intensity of the mitochondrial in vitro transcription reaction, the mitochondrial transcription elongation factor (TEFM, NP_078959.3.) can be added to the assay reagent mixture.
The general workflow of the assay and composition of assay reagents are described in Posse et al (Nucl. Acids Res. 2015). A linearized pUC18 plasmid comprising the human mitochondrial light-strand promotor sequence (LSP) is used as transcription plasmid.
Adaptations made to the original protocol relate to the different detection method applied and correspond to the set-up described in example 1.

Sequence of human POLRMT (mitochondrial DNA-directed RNA polymerase) (O00411 42-1230): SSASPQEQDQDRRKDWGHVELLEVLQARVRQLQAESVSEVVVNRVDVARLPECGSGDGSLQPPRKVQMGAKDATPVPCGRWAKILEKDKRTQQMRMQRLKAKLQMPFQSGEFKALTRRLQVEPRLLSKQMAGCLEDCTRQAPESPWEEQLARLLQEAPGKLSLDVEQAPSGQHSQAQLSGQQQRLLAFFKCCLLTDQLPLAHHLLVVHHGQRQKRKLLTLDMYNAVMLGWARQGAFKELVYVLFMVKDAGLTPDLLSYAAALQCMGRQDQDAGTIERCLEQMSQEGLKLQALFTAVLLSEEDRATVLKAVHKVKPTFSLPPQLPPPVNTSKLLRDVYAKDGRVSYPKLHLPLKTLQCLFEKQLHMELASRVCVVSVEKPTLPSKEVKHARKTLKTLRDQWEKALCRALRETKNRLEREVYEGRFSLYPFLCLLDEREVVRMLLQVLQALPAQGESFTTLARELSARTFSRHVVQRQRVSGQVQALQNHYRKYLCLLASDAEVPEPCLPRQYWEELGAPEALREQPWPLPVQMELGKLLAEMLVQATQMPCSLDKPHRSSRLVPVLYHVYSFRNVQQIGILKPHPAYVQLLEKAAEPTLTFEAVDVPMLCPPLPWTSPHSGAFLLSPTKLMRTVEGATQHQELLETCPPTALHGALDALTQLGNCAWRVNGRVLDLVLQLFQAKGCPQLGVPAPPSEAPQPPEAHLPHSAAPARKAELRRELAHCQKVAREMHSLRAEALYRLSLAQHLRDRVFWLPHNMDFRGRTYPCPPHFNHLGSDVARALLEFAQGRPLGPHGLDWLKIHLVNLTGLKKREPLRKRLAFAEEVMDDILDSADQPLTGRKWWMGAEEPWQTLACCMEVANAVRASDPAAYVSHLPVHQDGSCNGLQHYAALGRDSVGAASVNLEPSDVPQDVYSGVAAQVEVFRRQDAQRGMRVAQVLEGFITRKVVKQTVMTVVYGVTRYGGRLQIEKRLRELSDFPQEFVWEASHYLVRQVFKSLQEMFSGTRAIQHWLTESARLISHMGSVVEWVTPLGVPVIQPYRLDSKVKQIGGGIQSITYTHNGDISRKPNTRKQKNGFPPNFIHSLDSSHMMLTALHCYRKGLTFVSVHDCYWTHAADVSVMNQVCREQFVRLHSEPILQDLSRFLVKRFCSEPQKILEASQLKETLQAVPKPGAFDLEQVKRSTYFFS
Sequence of mitochondrial RNA-polymerase (POLRMT) (O00411 42-1230): as above

In the case of 2′methyl/OH-O-UTP, in test [1], the midpoint of inhibition, the IC50, lay at 84.5 µM; the Hill slope (in general, a measure of the steepness of the concentration-response curve) was −0.85; the “res. activity at highest conc.” value is reported as 8.6%; the “res. activity at lowest conc.” value is on record as 102%.

Regarding `C[C@@]1(F)[C@H](O)[C@@H](COP(=O)(O)OP(=O)(O)OP(=O)(O)O)O[C@H]1n1cnc2c(=O)[nH]c(N)nc21` [2′methyl/F-GTP], in test [1], the IC50 (commonly the concentration at which inhibition is half-maximal) turned out to be 73.4 µM, the Hill slope is −2.15, the “res. activity at highest conc.” value came to 46.9% and the “res. activity at lowest conc.” value came out at 88.32%.

For the molecule `C[C@@]1(O)[C@H](O)[C@@H](COP(=O)(O)OP(=O)(O)OP(=O)(O)O)O[C@H]1n1cnc2c(=O)[nH]c(N)nc21` [2′methyl/OH-GTP], in test [1], the Hill slope was −2.05, the “res. activity at highest conc.” value was 65.5% and the “res. activity at lowest conc.” value is reported as 96.5%.

For the molecule `Cc1cn([C@H]2C[C@H](O)[C@@H](COP(=O)(O)OP(=O)(O)OP(=O)(O)O)O2)c(=O)[nH]c1=S` [4-Thiothymidine-5′-Triphosphate], it took 54.1 µM to reach half-maximal inhibition in test [2] (384-well, 200 μM to 5 μM, 250 μM dNTPs) (IC50). This molecule gave a Hill slope in test [2] (four-parameter non-linear regression fit) of −0.9462. Moreover, the “res. activity at highest conc.” value in test [2] (highest assay conc. 200 μM) was found to be 22.6%. Besides, the “res. activity at lowest conc.” value in test [2] (lower limit of 5 μM) amounted to 92.79%.

B1: TEFM: mitochondrial transcription elongation factor (TEFM, NP_078959.3) (protein, UniProt Q96QE5 36-360, looked up)
Transcription elongation …: KSTTPKKITPNVTFCDENAKEPENALDKLFSSEQQASILHVLNTASTKELEAFRLLRGRRSINIVEHRENFGPFQNLESLMNVPLFKYKSTVQVCNSILCPKTGREKRKSPENRFLRKLLKPDIERERLKAVNSIISIVFGTRRIAWAHLDRKLTVLDWQQSDRWSLMRGIYSSSVYLEEISSIISKMPKADFYVLEKTGLSIQNSSLFPILLHFHIMEAMLYALLNKTFAQDGQHQVLSMNRNAVGKHFELMIGDSRTSGKELVKQFLFDSILKADPRVFFPSDKIVHYRQMFLSTELQRVEELYDSLLQAIAFYELAVFDSQP
For the molecule B1, the “signal increase of specific FRET signal versus reaction without TEFM (100%)” value in test [3] is given as “around 18%”.
